Values of other authors as cited in patent publication EP1060743A1, “Oral cisapride dosage forms with an extended duration” (DEVELOPMENT CENTER FOR BIOTECHNOLOGY, priority 1999, dated 2000).
Where two headings read alike, the source gives them in different places.

For `COc1cc(N)c(Cl)cc1C(=O)NC1CCN(CCCOc2ccc(F)cc2)CC1OC` (racemic) [cisapride, (±)-cis-4-amino-5-chloro-N-1-[3-(4-fluorophenoxy)propyl]-3-methoxy-4-piperidine-2-methoxybenzamide monohydrate], which solubility of cisapride (pH condition near neutral (pH of intestinal fluid)) is on record?
Its solubility of cisapride is “almost insoluble”.

And the solubility of cisapride (under acidic conditions)?
Its solubility of cisapride is “better solubility”.
